{
  "source": "patent US20240150362A1",
  "about": "“Substituted Pyrrolotriazines” (Molecure S.A., priority 2022, published 2024)",
  "molecular_target": "T1, full-length USP7 (Homo sapiens, UniProt Q93009)",
  "T1 construct": "A 45 μl reaction volume containing full-length USP7 (0.5-1.0 nM)",
  "T1 sequence (Q93009 whole entry)": "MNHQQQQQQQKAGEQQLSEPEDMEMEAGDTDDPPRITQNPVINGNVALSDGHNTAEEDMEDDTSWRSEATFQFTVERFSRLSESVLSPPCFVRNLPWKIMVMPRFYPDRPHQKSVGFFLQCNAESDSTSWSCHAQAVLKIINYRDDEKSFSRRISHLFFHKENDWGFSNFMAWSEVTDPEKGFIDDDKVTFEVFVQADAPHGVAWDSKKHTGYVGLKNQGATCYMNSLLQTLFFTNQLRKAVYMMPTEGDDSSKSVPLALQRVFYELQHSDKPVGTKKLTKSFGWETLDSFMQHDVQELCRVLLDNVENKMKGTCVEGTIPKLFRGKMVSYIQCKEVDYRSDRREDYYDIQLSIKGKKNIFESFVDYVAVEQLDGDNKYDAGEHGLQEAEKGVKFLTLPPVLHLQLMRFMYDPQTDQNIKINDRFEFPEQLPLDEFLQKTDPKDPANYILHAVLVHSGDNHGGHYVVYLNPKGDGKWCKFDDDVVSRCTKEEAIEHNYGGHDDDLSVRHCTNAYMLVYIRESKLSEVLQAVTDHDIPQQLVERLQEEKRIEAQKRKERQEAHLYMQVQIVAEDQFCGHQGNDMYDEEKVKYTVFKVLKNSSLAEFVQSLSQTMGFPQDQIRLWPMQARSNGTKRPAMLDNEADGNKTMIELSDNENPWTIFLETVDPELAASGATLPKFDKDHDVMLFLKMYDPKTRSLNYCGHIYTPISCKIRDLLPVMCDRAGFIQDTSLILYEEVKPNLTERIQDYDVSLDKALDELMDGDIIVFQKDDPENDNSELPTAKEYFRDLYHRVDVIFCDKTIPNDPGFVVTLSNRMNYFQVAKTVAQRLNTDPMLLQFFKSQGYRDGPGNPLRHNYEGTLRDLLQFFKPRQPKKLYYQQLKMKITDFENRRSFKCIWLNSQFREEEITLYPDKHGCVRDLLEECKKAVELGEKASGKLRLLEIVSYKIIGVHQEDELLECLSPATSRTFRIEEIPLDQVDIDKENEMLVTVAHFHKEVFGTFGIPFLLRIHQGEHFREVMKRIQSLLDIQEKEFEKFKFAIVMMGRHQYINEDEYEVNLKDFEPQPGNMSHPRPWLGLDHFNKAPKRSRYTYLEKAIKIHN",
  "assay": "Enzymatic assay to determine % inhibition of USP7 activity at 1 μM test compound (Ubiquitin-Rhodamine 110 cleavage)",
  "format": "biochemical",
  "details": "1 μM of the test compound; given where IC50 has not been determined yet; mean of two repetitions",
  "protocol": "Enzymatic Assay to Determine % Value of Inhibition […] Activity at 1 μM […]\nA 45 μl reaction volume containing full-length USP7 (0.5-1.0 nM) in 50 mM HEPES pH 7.5, 150 mM NaCl, 2 mM DTT, 1 mg/ml BSA and 0.05% Tween20 (DUB assay buffer) was assembled in wells of 96 well half area black flat bottom plates. All test compounds were first dissolved to 30 mM stocks in DMSO and subsequently introduced to enzyme 15 min after USP7 incubation with DTT at room temperature. The final concentration of tested compounds was 1 μM. The enzymatic reaction was started by adding 0.5 μM Ubiquitin-Rhodamine 110 (final concentration) and allowed to proceed for 30-60 min at 25° C., 250 RPM shaking before Rhodamine fluorescence (485 nm excitation/535 nm emission) was measured using Tecan Spark M10 plate reader. Percentage of inhibition at 1 μM was determined by the mean of two repetitions for these concentrations using Microsoft Excel software.",
  "note": "Where a name gives a salt, the structure may show the parent alone.",
  "data": [
    {"smiles": "Cc1cc(Cl)cc(-c2ncnn3cc(CN4C(=O)C5C(C4=O)C5(C)C)cc23)c1CC1CNCC(CF)O1", "note": "(centres unmarked) [Example 42, 3-((4-(5-chloro-2-((6-(fluoromethyl)morpholin-2-yl)methyl)-3-methylphenyl)pyrrolo[2,1-f][1,2,4]triazin-6-yl)methyl)-6,6-dimethyl-3-azabicyclo[3.1.0]hexane-2,4-dione hydrochloride]", "values": [
      {"measurement": "inhibition at 1 µM", "result": "50 to 70", "unit": "%"}
    ]},
    {"smiles": "CC1(C)C2C(=O)N(Cc3cc4c(-c5cc(C(=O)O)cc6ccn(C[C@@H]7CNCCO7)c56)ncnn4c3)C(=O)C21", "note": "(stereo partly drawn) [Example 47, 7-(6-((6,6-dimethyl-2,4-dioxo-3-azabicyclo[3.1.0]hexan-3-yl)methyl)pyrrolo[2,1-f][1,2,4]triazin-4-yl)-1-(((S)-morpholin-2-yl)methyl)-1H-indole-5-carboxylic acid hydrochloride]", "values": [
      {"measurement": "inhibition at 1 µM", "result": "< 20", "unit": "%"}
    ]},
    {"smiles": "Cc1cc(Cl)cc(-c2ncnn3cc(CN4C(=O)C5C(C4=O)C5(C)C)cc23)c1OC[C@H]1CNCCO1", "note": "(stereo partly drawn) [Example 52, 3-((4-(5-chloro-3-methyl-2-(((R)-morpholin-2-yl)methoxy)phenyl)pyrrolo[2,1-f][1,2,4]triazin-6-yl)methyl)-6,6-dimethyl-3-azabicyclo[3.1.0]hexane-2,4-dione hydrochloride]", "values": [
      {"measurement": "inhibition at 1 µM", "result": "20 to 49", "unit": "%"}
    ]},
    {"smiles": "Cc1cc(Cl)cc(-c2ncnn3cc(CN4C(=O)C5C(C4=O)C5(C)C)cc23)c1OC[C@@H]1CCCNC1", "note": "(stereo partly drawn) [Example 53, 3-((4-(5-chloro-3-methyl-2-(((R)-piperidin-3-yl)methoxy)phenyl)pyrrolo[2,1-f][1,2,4]triazin-6-yl)methyl)-6,6-dimethyl-3-azabicyclo[3.1.0]hexane-2,4-dione hydrochloride]", "values": [
      {"measurement": "inhibition at 1 µM", "result": "20 to 49", "unit": "%"}
    ]},
    {"smiles": "CC1(C)C2C(=O)N(Cc3cc4c(-c5cc(Cl)cc6c5N(C5CCNCC5)CCC6)ncnn4c3)C(=O)C21", "note": "(centres unmarked) [Example 54, 3-((4-(6-chloro-1-(piperidin-4-yl)-1,2,3,4-tetrahydroquinolin-8-yl)pyrrolo[2,1-f][1,2,4]triazin-6-yl)methyl)-6,6-dimethyl-3-azabicyclo[3.1.0]hexane-2,4-dione hydrochloride]", "values": [
      {"measurement": "inhibition at 1 µM", "result": "> 70", "unit": "%"}
    ]},
    {"smiles": "O=c1ccn(CC(F)(F)F)c(=O)n1Cc1cc2c(-c3cc(Cl)cc4c3N(C3CCNC3)CCC4)ncnn2c1", "note": "(centres unmarked) [Example 64, 3-((4-(6-chloro-1-(pyrrolidin-3-yl)-1,2,3,4-tetrahydroquinolin-8-yl)pyrrolo[2,1-f][1,2,4]triazin-6-yl)methyl)-1-(2,2,2-trifluoroethyl)pyrimidine-2,4(1H,3H)-dione hydrochloride]", "values": [
      {"measurement": "inhibition at 1 µM", "result": "> 70", "unit": "%"}
    ]},
    {"smiles": "CC1(C)C2C(=O)N(Cc3cc4c(-c5cc(Cl)cc6c5N(C[C@@H]5CNCCO5)CCC6)ncnn4c3)C(=O)C21", "note": "(stereo partly drawn) [Example 65, 3-((4-(6-chloro-1-(((S)-morpholin-2-yl)methyl)-1,2,3,4-tetrahydroquinolin-8-yl)pyrrolo[2,1-f][1,2,4]triazin-6-yl)methyl)-6,6-dimethyl-3-azabicyclo[3.1.0]hexane-2,4-dione hydrochloride]", "values": [
      {"measurement": "inhibition at 1 µM", "result": "20 to 49", "unit": "%"}
    ]},
    {"smiles": "CC1(C)C2C(=O)N(Cc3cc4c(-c5cc(Cl)cc6c5N(C5CNC5)CCC6)ncnn4c3)C(=O)C21", "note": "(centres unmarked) [Example 69, 3-((4-(1-(azetidin-3-yl)-6-chloro-1,2,3,4-tetrahydroquinolin-8-yl)pyrrolo[2,1-f][1,2,4]triazin-6-yl)methyl)-6,6-dimethyl-3-azabicyclo[3.1.0]hexane-2,4-dione hydrochloride]", "values": [
      {"measurement": "inhibition at 1 µM", "result": "> 70", "unit": "%"}
    ]},
    {"smiles": "Cc1cc(Cl)cc(-c2ncnn3cc(CN4C(=O)C5C(C4=O)C5(C)C)cc23)c1CC1CNC2(CC2)CO1", "note": "(centres unmarked) [Example 71, 3-((4-(2-((7-oxa-4-azaspiro[2.5]octan-6-yl)methyl)-5-chloro-3-methylphenyl)pyrrolo[2,1-f][1,2,4]triazin-6-yl)methyl)-6,6-dimethyl-3-azabicyclo[3.1.0]hexane-2,4-dione 2,2,2-trifluoroacetate]", "values": [
      {"measurement": "inhibition at 1 µM", "result": "20 to 49", "unit": "%"}
    ]},
    {"smiles": "Cc1cc(Cl)cc(-c2ncnn3cc(CN4C(=O)C5C(C4=O)C5(C)C)cc23)c1CC1(C)CNCC(C)(C)O1", "note": "(centres unmarked) [Example 72, 3-((4-(5-chloro-3-methyl-2-((2,6,6-trimethylmorpholin-2-yl)methyl)phenyl)pyrrolo[2,1-f][1,2,4]triazin-6-yl)methyl)-6,6-dimethyl-3-azabicyclo[3.1.0]hexane-2,4-dione hydrochloride]", "values": [
      {"measurement": "inhibition at 1 µM", "result": "> 70", "unit": "%"}
    ]},
    {"smiles": "Cc1cc(Cl)cc(-c2ncnn3cc(CN4C(=O)C5C(C4=O)C5(C)C)cc23)c1NCC1CCNCC1", "note": "(centres unmarked) [Example 73, 3-((4-(5-chloro-3-methyl-2-((piperidin-4-ylmethyl)amino)phenyl)pyrrolo[2,1-f][1,2,4]triazin-6-yl)methyl)-6,6-dimethyl-3-azabicyclo[3.1.0]hexane-2,4-dione dihydrochloride]", "values": [
      {"measurement": "inhibition at 1 µM", "result": "> 70", "unit": "%"}
    ]},
    {"smiles": "Cc1cc(Cl)cc(-c2ncnn3cc(CN4C(=O)C5C(C4=O)C5(C)C)cc23)c1NCC1CCCNC1", "note": "(centres unmarked) [Example 79, 3-((4-(5-chloro-3-methyl-2-((piperidin-3-ylmethyl)amino)phenyl)pyrrolo[2,1-f][1,2,4]triazin-6-yl)methyl)-6,6-dimethyl-3-azabicyclo[3.1.0]hexane-2,4-dione dihydrochloride]", "values": [
      {"measurement": "inhibition at 1 µM", "result": "50 to 70", "unit": "%"}
    ]},
    {"smiles": "Cc1cc(Cl)cc(-c2ncnn3cc(CN4C(=O)C5C(C4=O)C5(C)C)cc23)c1NC[C@@H]1CNCCO1", "note": "(stereo partly drawn) [Example 81, 3-((4-(5-chloro-3-methyl-2-((((S)-morpholin-2-yl)methyl)amino)phenyl)pyrrolo[2,1-f][1,2,4]triazin-6-yl)methyl)-6,6-dimethyl-3-azabicyclo[3.1.0]hexane-2,4-dione dihydrochloride]", "values": [
      {"measurement": "inhibition at 1 µM", "result": "20 to 49", "unit": "%"}
    ]},
    {"smiles": "Cc1cc(Cl)cc(-c2ncnn3cc(CN4C(=O)C5C(C4=O)C5(C)C)cc23)c1C1=CCNCC1", "note": "(centres unmarked) [Example 84, 3-((4-(5-chloro-3-methyl-2-(1,2,3,6-tetrahydropyridin-4-yl)phenyl)pyrrolo[2,1-f][1,2,4]triazin-6-yl)methyl)-6,6-dimethyl-3-azabicyclo[3.1.0]hexane-2,4-dione hydrochloride]", "values": [
      {"measurement": "inhibition at 1 µM", "result": "< 20", "unit": "%"}
    ]},
    {"smiles": "CC1(C)C2C(=O)N(Cc3cc4c(-c5cc(Cl)ccc5N5CCNCC5)ncnn4c3)C(=O)C21", "note": "(centres unmarked) [Example 85, 3-((4-(5-chloro-2-(piperazin-1-yl)phenyl)pyrrolo[2,1-f][1,2,4]triazin-6-yl)methyl)-6,6-dimethyl-3-azabicyclo[3.1.0]hexane-2,4-dione hydrochloride]", "values": [
      {"measurement": "inhibition at 1 µM", "result": "< 20", "unit": "%"}
    ]},
    {"smiles": "CC1(C)C2C(=O)N(Cc3cc4c(-c5cc(Cl)ccc5N5CC[C@H](N)C5)ncnn4c3)C(=O)C21", "note": "(stereo partly drawn) [Example 86, 3-((4-(2-((S)-3-aminopyrrolidin-1-yl)-5-chlorophenyl)pyrrolo[2,1-f][1,2,4]triazin-6-yl)methyl)-6,6-dimethyl-3-azabicyclo[3.1.0]hexane-2,4-dione hydrochloride]", "values": [
      {"measurement": "inhibition at 1 µM", "result": "20 to 49", "unit": "%"}
    ]},
    {"smiles": "CC1(C)C2C(=O)N(Cc3cc4c(-c5cc(Cl)ccc5N5CC[C@@H](N)C5)ncnn4c3)C(=O)C21", "note": "(stereo partly drawn) [Example 87, 3-((4-(2-((R)-3-aminopyrrolidin-1-yl)-5-chlorophenyl)pyrrolo[2,1-f][1,2,4]triazin-6-yl)methyl)-6,6-dimethyl-3-azabicyclo[3.1.0]hexane-2,4-dione hydrochloride]", "values": [
      {"measurement": "inhibition at 1 µM", "result": "20 to 49", "unit": "%"}
    ]},
    {"smiles": "Cc1cc(Cl)cc(-c2ncnn3cc(Cn4c(=O)ccn(C)c4=O)cc23)c1C1=CCNCC1", "note": "[Example 88, 3-((4-(5-chloro-3-methyl-2-(1,2,3,6-tetrahydropyridin-4-yl)phenyl)pyrrolo[2,1-f][1,2,4]triazin-6-yl)methyl)-1-methylpyrimidine-2,4(1H,3H)-dione hydrochloride]", "values": [
      {"measurement": "inhibition at 1 µM", "result": "< 20", "unit": "%"}
    ]},
    {"smiles": "CC1(C)C2C(=O)N(Cc3cc4c(-c5cc(Cl)ccc5N5C[C@H]6CCN[C@H]6C5)ncnn4c3)C(=O)C21", "note": "(stereo partly drawn) [Example 90, 3-((4-(5-chloro-2-((3aR,6aR)-hexahydropyrrolo[3,4-b]pyrrol-5(1H)-yl)phenyl)pyrrolo[2,1-f][1,2,4]triazin-6-yl)methyl)-6,6-dimethyl-3-azabicyclo[3.1.0]hexane-2,4-dione hydrochloride]", "values": [
      {"measurement": "inhibition at 1 µM", "result": "50 to 70", "unit": "%"}
    ]},
    {"smiles": "CC1(C)C2C(=O)N(Cc3cc4c(-c5cc(Cl)ccc5N5CCC6(CCCN6)C5)ncnn4c3)C(=O)C21", "note": "(centres unmarked) [Example 91, 3-((4-(5-chloro-2-(1,7-diazaspiro[4.4]nonan-7-yl)phenyl)pyrrolo[2,1-f][1,2,4]triazin-6-yl)methyl)-6,6-dimethyl-3-azabicyclo[3.1.0]hexane-2,4-dione hydrochloride]", "values": [
      {"measurement": "inhibition at 1 µM", "result": "20 to 49", "unit": "%"}
    ]},
    {"smiles": "CC1(C)C2C(=O)N(Cc3cc4c(-c5cc(Cl)cc6c5N(C5CCNC5)CC5CC65)ncnn4c3)C(=O)C21", "note": "(centres unmarked) [Example 92, 3-((4-(6-chloro-3-(pyrrolidin-3-yl)-1a,2,3,7b-tetrahydro-1H-cyclopropa[c]quinolin-4-yl)pyrrolo[2,1-f][1,2,4]triazin-6-yl)methyl)-6,6-dimethyl-3-azabicyclo[3.1.0]hexane-2,4-dione hydrochloride]", "values": [
      {"measurement": "inhibition at 1 µM", "result": "50 to 70", "unit": "%"}
    ]},
    {"smiles": "CC1(C)C2C(=O)N(Cc3cc4c(-c5cc(Cl)ccc5N5C[C@@H]6CCN[C@@H]6C5)ncnn4c3)C(=O)C21", "note": "(stereo partly drawn) [Example 96, 3-((4-(5-chloro-2-((3aS,6aS)-hexahydropyrrolo[3,4-b]pyrrol-5(1H)-yl)phenyl)pyrrolo[2,1-f][1,2,4]triazin-6-yl)methyl)-6,6-dimethyl-3-azabicyclo[3.1.0]hexane-2,4-dione hydrochloride]", "values": [
      {"measurement": "inhibition at 1 µM", "result": "< 20", "unit": "%"}
    ]},
    {"smiles": "CC1(C)C2C(=O)N(Cc3cc4c(-c5cc(Cl)ccc5N5CC6CNCC6C5)ncnn4c3)C(=O)C21", "note": "(centres unmarked) [Example 97, 3-((4-(5-chloro-2-(hexahydropyrrolo[3,4-c]pyrrol-2(1H)-yl)phenyl)pyrrolo[2,1-f][1,2,4]triazin-6-yl)methyl)-6,6-dimethyl-3-azabicyclo[3.1.0]hexane-2,4-dione hydrochloride]", "values": [
      {"measurement": "inhibition at 1 µM", "result": "< 20", "unit": "%"}
    ]}
  ]
}
